In US9315475B2 (MERCK SHARP & DOHME CORP., priority 2011, dated 2016) one finds IC50 and EC50 data, which are given here for 20 molecules.

For one experiment, the target named is T1, wildtype HIV-1 protease (Human immunodeficiency virus type 1 group M subtype B, UniProt P04585).
T1 construct: the wildtype HIV-1 protease (which was expressed in Escherichia coli); made in house; host or cells: Escherichia coli
As to the kind of experiment: Assay for inhibition of microbial expressed HIV protease (Pepcleav). Particulars: wild type HIV-1 protease expressed in E. coli, peptide substrate, pH 5.5; mean of at least two independent experiments; read-out: Pepcleav. Format: biochemical. Put shortly:
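Cleavage of 400 μM peptide substrate Val-Ser-Gln-Asn-(βnaphthyl)Ala-Pro-Ile-Val by 20 pM wild-type enzyme (E. coli-expressed) ran 1 h at 30 °C after 30 min inhibitor preincubation, pH 5.5 acetate buffer. Inhibition derived from product peak area by C18 LC with multiple-reaction-monitoring MS after formic acid quench.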

For a further experiment, the system named is HIV-1 (H9IIIB strain). As to the kind of experiment: Antiviral acute infection assay in cell culture (Spread). It is filed as cell-based. The conditions noted are these: Human immunodeficiency virus 1, T-lymphoid, HIV-1 H9IIIB infection of MT-4 human T-lymphoid cells in 10% FBS; mean of at least two independent experiments. The text has this:
Antiviral Assays in Cell Culture (“Spread”)
Acute Infection Assay (“Spread”) data were generated using HIV-1 (H9IIIB strain) infection of MT-4 human T-lymphoid cells in 10% FBS, and according to the methods disclosed by J. P. Vacca et al, “L-735,524: An orally bioavailable human immunodeficiency virus type 1 protease inhibitor,” Proc. Natl. Acad. Sci. USA, Vol. 91, pp. 4096-4100 (April 1994).

Consider `N[C@H](C(=O)Nc1cccc(F)c1CC[C@@H]1CN[C@H](COC(=O)NCC(F)(F)F)CO1)[C@H](c1ccccc1)c1ccc2ccccc2c1` [Example 241, (βR)-N-(3-fluoro-2-{2-[(2R,5S)-5-({[(2,2,2-trifluoroethyl)carbamoyl]oxy}methyl)morpholin-2-yl]ethyl}phenyl)-β-naphthalen-2-yl-L-phenylalaninamide], for which, on wildtype HIV-1 protease, the IC50 stood at 32 nM. The molecule further yielded an EC50 in the experiment with HIV-1 (H9IIIB strain) of 360 nM.
Take `COC(=O)N[C@H](C(=O)Nc1cccc(F)c1CC[C@@H]1CN[C@H](COC(=O)NCC(F)(F)F)CO1)[C@H](c1ccc(F)cc1)c1ccc(F)c(F)c1` [Example 295, (βR)-β-(3,4-difluorophenyl)-4-fluoro-N-(3-fluoro-2-{2-[(2R,5S)-5-({[(2,2,2-trifluoroethyl)carbamoyl]oxy}methyl)morpholin-2-yl]ethyl}phenyl)-Nα-(methoxy-carbonyl)-L-phenylalaninamide]: on wildtype HIV-1 protease, the IC50 came to 2.5 nM. In the experiment on HIV-1 (H9IIIB strain), this molecule yielded an EC50 of 13 nM.
As to `N[C@H](C(=O)Nc1cncc(F)c1CC[C@@H]1CN[C@H](COC(=O)NCC(F)(F)F)CO1)[C@H](c1ccccc1)c1ccc(Cl)cc1` [Example 95, (βR)-β-(4-Chlorophenyl)-N-(5-fluoro-4-{2-[(2R,5S)-5-({[(2,2,2-trifluoroethyl)carbamoyl]oxy}methyl)morpholin-2-yl]ethyl}pyridin-3-yl)-L-phenylalaninamide], the IC50 at wildtype HIV-1 protease came out at 0.4 nM. The midpoint of the response in the experiment on HIV-1 (H9IIIB strain), the EC50, lay at 16 nM.
On to `N[C@H](C(=O)Nc1cncc(F)c1CC[C@@H]1CN[C@H](COC(=O)NCC(F)(F)F)CO1)[C@H](c1ccc(F)cc1)c1ccc(C(F)(F)F)cc1` [Example 264, (βS)-β-(4-fluorophenyl)-N-(5-fluoro-4-{2-[(2R,5S)-5-({[(2,2,2-trifluoroethyl)carbamoyl]oxy}methyl)morpholin-2-yl]ethyl}pyridin-3-yl)-4-(trifluoromethyl)-L-phenylalaninamide], for which the IC50 at wildtype HIV-1 protease came to 3.6 nM. The EC50 in the experiment on HIV-1 (H9IIIB strain) was found to be 77 nM.
`O=C(CC(c1ccc(F)cc1)c1ccc(F)cc1)Nc1cncc(F)c1CC[C@@H]1CN[C@H](COC(=O)NC(CO)C(F)(F)F)CO1` (stereo partly drawn) [Example 167, {(3S,6R)-6-[2-(3-{[3,3-bis(4-fluoro-phenyl)propanoyl]amino}-5-fluoropyridin-4-yl)ethyl]morpholin-3-yl}methyl [2,2,2-trifluoro-1-(hydroxymethyl)ethyl] carbamate]: the IC50 on wildtype HIV-1 protease is 1.5 nM. For the same molecule, the EC50 in the experiment with HIV-1 (H9IIIB strain) is 1250 nM.
With `N[C@H](C(=O)Nc1cncc(F)c1CC[C@@H]1CN[C@H](COC(=O)NCC2CCCCO2)CO1)C(c1ccc(F)cc1)c1ccc(F)cc1` (stereo partly drawn) [Example 213, 4-fluoro-β-(4-fluorophenyl)-N-(5-fluoro-4-{2-[(2R,5S)-5-({[(tetrahydro-2H-pyran-2-ylmethyl)carbamoyl]oxy}methyl)morpholin-2-yl]ethyl}pyridin-3-yl)-L-phenylalaninamide], the IC50 on wildtype HIV-1 protease was found to be 6.1 nM. This molecule yielded an EC50 in the experiment with HIV-1 (H9IIIB strain) of 61 nM.
Consider `COC(=O)N[C@H](C(=O)Nc1cccc(F)c1CC[C@@H]1CN[C@H](COC(=O)NCC(F)(F)F)CO1)[C@H](c1ccc(F)cc1)c1ccc(OC)cc1` [Example 299, (βS)-β-(4-fluorophenyl)-N-(3-fluoro-2-{2-[(2R, 5S)-5-({[(2,2,2-trifluoroethyl)carbamoyl]oxy}methyl)morpholin-2-yl]ethyl}phenyl)-Nα-(methoxy-carbonyl)-O-methyl-L-tyrosinamide], for which the IC50 at wildtype HIV-1 protease was 15 nM. Moreover, the EC50 in the experiment with HIV-1 (H9IIIB strain) worked out at 32 nM.
With `N[C@H](C(=O)Nc1c(Cl)cccc1OC[C@@H]1CN[C@H](COC(=O)NCC(F)(F)F)CO1)C(c1ccc(F)cc1)c1ccc(F)cc1` [Example 260, N-(2-chloro-6-{[(2S,5S)-5-({[(2,2,2-trifluoroethyl)carbamoyl]oxy}methyl)morpholin-2-yl]methoxy}phenyl)-4-fluoro-β-(4-fluorophenyl)-L-phenylalaninamide], at wildtype HIV-1 protease, the IC50 turned out to be 4.8 nM. In the experiment on HIV-1 (H9IIIB strain), the midpoint of the response, the EC50, lay at 190 nM.
Regarding `N[C@H](C(=O)Nc1cccc(F)c1CC[C@@H]1CN[C@H](COC(=O)NCc2cccnc2)CO1)C(c1ccc(F)cc1)c1ccc(F)cc1` [Example 201, 4-fluoro-β-(4-fluorophenyl)-N-(3-fluoro-2-{2-[(2R,5S)-5-({[(pyridin-3-ylmethyl)carbamoyl]oxy}methyl)morpholin-2-yl]ethyl}phenyl)-L-phenylalaninamide], on wildtype HIV-1 protease, the IC50 was 28 nM. In addition, in the experiment with HIV-1 (H9IIIB strain), the EC50 worked out at 80 nM.
Regarding `N[C@H](C(=O)Nc1cc(F)cc(F)c1OC[C@@H]1CN[C@H](COC(=O)NCC(F)(F)F)CO1)C(c1ccc(F)cc1)c1ccc(F)cc1` [Example 245, N-(3,5-difluoro-2-{[(2S,5S)-5-({[(2,2,2-trifluoroethyl)carbamoyl]oxy}methyl)morpholin-2-yl]methoxy}phenyl)-4-fluoro-β-(4-fluorophenyl)-L-phenylalaninamide], the IC50 on wildtype HIV-1 protease was 16 nM. In the experiment on HIV-1 (H9IIIB strain), this molecule gave an EC50 of 360 nM.
In the case of `COC(=O)N[C@H](C(=O)Nc1cncc(F)c1CC[C@@H]1CN[C@H](COC(=O)NCC(F)(F)F)CO1)[C@H](c1ccc(F)cc1)c1ccc(Br)cc1` [Example 298, (βR)-β-(4-bromophenyl)-4-fluoro-N-(5-fluoro-4-{2-[(2R,5S)-5-({[(2,2,2-trifluoroethyl)carbamoyl]oxy}methyl)morpholin-2-yl]ethyl}pyridin-3-yl)-Nα-(methoxycarbonyl)-L-phenylalaninamide], on wildtype HIV-1 protease, the IC50 came out at 0.3 nM. In the experiment with HIV-1 (H9IIIB strain), this molecule yielded an EC50 of 14 nM.
The like results for `CCNC(=O)OC[C@@H]1CO[C@H](CCc2c(F)cncc2NC(=O)[C@@H](N)C(c2ccc(F)cc2)c2ccc(F)cc2)CN1` [Example 207, N-(4-{2-[(2R,5S)-5-{[(ethylcarbamoyl)oxy]methyl}morpholin-2-yl]ethyl}-5-fluoropyridin-3-yl)-4-fluoro-β-(4-fluorophenyl)-L-phenylalaninamide] were, in that order, 20 nM and 110 nM.
Turning to `N[C@H](C(=O)Nc1cncc(F)c1CC[C@@H]1CN[C@H](COC(=O)NCc2nc3ccncc3[nH]2)CO1)C(c1ccc(F)cc1)c1ccc(F)cc1` [Example 242, 4-fluoro-N-(5-fluoro-4-{2-[(2R,5S)-5-({[(3H-imidazo[4,5-c]pyridin-2-ylmethyl)carbamoyl]oxy}methyl)morpholin-2-yl]ethyl}pyridin-3-yl)-β-(4-fluorophenyl)-L-phenylalaninamide], the IC50 on wildtype HIV-1 protease came out at 25 nM. The EC50 in the experiment with HIV-1 (H9IIIB strain) was found to be 600 nM.
Consider `N[C@H](C(=O)Nc1cncc(F)c1CC[C@@H]1CN[C@H](COC(=O)NC2(c3ccccn3)CC2)CO1)C(c1ccc(F)cc1)c1ccc(F)cc1` [Example 214, 4-fluoro-β-(4-fluorophenyl)-N-(5-fluoro-4-{2-[(2R,5S)-5-({[(1-pyridin-2-ylcyclopropyl)carbamoyl]oxy}methyl)morpholin-2-yl]ethyl}pyridin-3-yl)-L-phenylalaninamide], for which the IC50 on wildtype HIV-1 protease was 5.2 nM. In the experiment with HIV-1 (H9IIIB strain), this molecule came in with an EC50 of 58 nM.
As to `N[C@H](C(=O)Nc1cc(F)ccc1CC[C@@H]1CN[C@H](COC(=O)NCC(F)F)CO1)C(c1ccccc1)c1ccccc1` [Example 237, N-(2-{2-[(2R,5S)-5-({[(2,2-difluoroethyl)carbamoyl]oxy}methyl)morpholin-2-yl]ethyl}-5-fluorophenyl)-β-phenyl-L-phenylalaninamide], at wildtype HIV-1 protease, the IC50 amounted to 69 nM. Also, the midpoint of the response with HIV-1 (H9IIIB strain), the EC50, lay at 190 nM.
On to `O=C(C[C@H](c1ccc(F)cc1)c1ccc(Br)cc1)Nc1cccc(F)c1CC[C@@H]1CN[C@H](COC(=O)NCC(F)(F)F)CO1` [Example 155, {(3S,6R)-6-[2-(2-{[(3R)-3-(4-bromophenyl)-3-(4-fluorophenyl)propanoyl]amino}-6-fluoro-phenyl)ethyl]morpholin-3-yl}methyl (2,2,2-trifluoroethyl)carbamate], for which the IC50 on wildtype HIV-1 protease stood at 6.1 nM. For the same molecule, a half-maximal response in the experiment with HIV-1 (H9IIIB strain) (EC50) required 58 nM.
The like results for `O=C(C[C@@H](c1ccc(F)cc1)c1cc(F)cc(F)c1)Nc1cccc(F)c1CC[C@@H]1CN[C@H](COC(=O)NCC(F)(F)F)CO1` [Example 147, {(3S,6R)-6-[2-(2-{[(3S)-3-(3,5-difluorophenyl)-3-(4-fluorophenyl)propanoyl]amino}-6-fluorophenyl)ethyl]morpholin-3-yl} methyl (2,2,2-trifluoroethyl)carbamate] were, in that order, 4.9 nM and 120 nM.
Consider `N[C@H](C(=O)Nc1cncc(F)c1CC[C@@H]1CN[C@H](COC(=O)NCC(F)(F)F)CO1)[C@H](c1ccc(F)cc1)c1ccc(Br)cc1` [Example 275, (βR)-4-bromo-β-(4-fluorophenyl)-N-(5-fluoro-4-{2-[(2R,5S)-5-({[(2,2,2-trifluoroethyl)carbamoyl]oxy}methyl)morpholin-2-yl]ethyl}pyridin-3-yl)-L-phenylalaninamide], for which the IC50 at wildtype HIV-1 protease was 0.4 nM. For the same molecule, in the experiment with HIV-1 (H9IIIB strain), the EC50 stood at 25 nM.
Consider `COC(=O)N[C@H](C(=O)Nc1cncc(F)c1CC[C@@H]1CN[C@H](COC(=O)NCC(F)(F)F)CO1)[C@H](c1ccc(F)cc1)c1ccc(C(F)(F)F)cc1` [Example 286], for which, on wildtype HIV-1 protease, the IC50 is 4.6 nM. In addition, the EC50 with HIV-1 (H9IIIB strain) worked out at 37 nM.
`N[C@H](C(=O)Nc1cncc(F)c1CC[C@@H]1CN[C@H](COC(=O)NCC2CCOCC2)CO1)C(c1ccc(F)cc1)c1ccc(F)cc1` [Example 208, 4-fluoro-β-(4-fluorophenyl)-N-(5-fluoro-4-{2-[(2R,5S)-5-({[(tetrahydro-2H-pyran-4-ylmethyl)carbamoyl]oxy}methyl)morpholin-2-yl]ethyl}pyridin-3-yl)-L-phenylalaninamide]: the IC50 at wildtype HIV-1 protease was found to be 18 nM. In addition, it took 100 nM to reach a half-maximal effect with HIV-1 (H9IIIB strain) (EC50).

A word on the EC50: it is the concentration at which the effect is half-maximal. Lower therefore signals greater potency.
